Experimental data: patent US11510876B2, “In vivo targeting of extracellular vesicles” (Mayo Foundation for Medical Education and Research, priority 2019, dated 2022)

How the values were obtained:
[1] = tested on: ^89Zr labeled PC-3 derived exosomes; assay: PET imaging of methylene blue mediated homing of intravenously injected 89Zr labeled exosomes to the injected hind paw (FIG. 11); type: in vivo, mouse; details: 1% methylene blue in Lactated Ringer's Solution injected in hind limb paw 1 h after i.v. exosomes; PET 1 h later; opposite paw (Ringer's only) showed no accumulation
Protocol: For PET image 456, the ^89Zr labeled PC-3 derived exosomes were intravenously injected (via tail vein). Then after one hour, 1% methylene blue (in Lactated Ringer's Solution) was injected in a hind limb paw. The opposite hind limb paw received a methylene blue-free and sterile Lactated Ringer's Solution. One hour after administering the methylene blue solution, the PET image 456 was taken. […] Thus, methylene blue homed the ^89Zr labeled PC-3 derived exosomes from circulation to the paw region, effectively showing that the ^89Zr labeled PC-3 derived exosomes targeted methylene blue.

[2] = tested on: ^89Zr labeled stem cell derived exosomes; assay: as above; type: in vivo, mouse; details: 1% methylene blue in Lactated Ringer's Solution injected in hind limb paw 1 h after i.v. exosomes; PET 1 h later; opposite paw (Ringer's only) showed no accumulation
Description: FIG. 11 illustrates four PET images of injected ^89Zr labeled exosomes in mice. PET images 450, 452 utilized stem cell derived exosomes, whereas PET images 454, 456 illustrate prostate cancer (PC-3) derived exosomes. Both groups of exosomes were labeled with ^89Zr, a positron emitter, which allows the exosomes to be tracked within the mouse by PET imaging. As illustrated in some or all of the PET images 450, 452, 454, 456, the heart/lungs 460, the liver 462, the gut 464/468 and 466/470 show “hotspots” of the ^89Zr labeled exosomes (homing agent mediated accumulation zones of the ^89Zr labeled exosomes). […] For PET image 452, the ^89Zr labeled stem cell derived exosomes were intravenously injected (via tail vein). Then after one hour, 1% methylene blue (in Lactated Ringer's Solution) was injected in a hind limb paw. The opposite hind limb paw received a methylene blue-free and sterile Lactated Ringer's Solution. One hour after administering the methylene blue solution, the PET image 452 was taken. […] Thus, the methylene blue homed the ^89Zr linked stem cell derived exosomes from circulation, effectively showing that the ^89Zr labeled stem cell derived exosomes targeted methylene blue.

[3] = tested on: ^89Zr labeled stem cell derived exosomes; assay: Time-lapse PET imaging of the bio-distribution of 89Zr labeled exosomes after methylene blue paw injections (FIG. 12); type: in vivo, mouse
Protocol: FIG. 12 illustrates four time-lapse PET images showing the bio-distribution of injected ^89Zr labeled stem cell derived exosomes in a mouse. Similarly to the experiment illustrated in FIG. 11, stem cell derived exosomes were labeled with ^89Zr, a positron emitter, which allows the exosomes to be tracked within the mouse by PET imaging. Then, the ^89Zr labeled stem cell derived exosomes were injected intravenously into the mouse, and subsequently imaged thirty minutes after the injection, shown in PET image 500. Illustrated in PET image 500, and also the other PET images 502, 504, 506, are “hotspots” of the administered ^89Zr labeled stem cell derived exosomes (homing agent mediated accumulation zones of the ^89Zr labeled exosomes) at specific locations within the mouse (e.g., the heart 510, the liver 512, and the gut 514). […] Thus, the ^89Zr labeled stem cell derived exosomes were effectively homed to the tissue that contained methylene blue. After administering the methylene blue solution, 20 additional hours were lapsed before completing a second imaging of the mouse (at PET image 504). […] Then, immediately after acquiring PET image 504, the mouse was injected with the methylene blue solution at the hind paw (designated numeral 520), opposite the first hind paw injected with methylene blue (designated numeral 516). One hour after the second injection at the opposite hind paw at reference numeral 520, PET image 506 was acquired.

extracellular vesicles = assay: Homing of extracellular vesicles to the target site by an injected homing agent; type: in vivo; details: subcutaneous area in foot pad of a mouse, 500 ng also printed as 1.6 nmol
Description: We have discovered that non-toxic doses of phenothiazine derivatives or polyethylene glycols are useful for the homing of exogenous extracellular vesicles to specific tissues in the body. This discovery has many potential applications in therapy and diagnosis in its ability to spatially concentrate extracellular vesicles. These methods can improve the homing of extracellular vesicles to diseased tissues, as well as enriched sampling and extraction of extracellular vesicles for diagnostics at low cost. Rather than using extensively modified extracellular vesicles (e.g., with biological and/or chemical modifications), which can be complex and costly, extracellular vesicles can be targeted by using little to no modification of the extracellular vesicles themselves. […] Our initial findings show broad applicability with regard to the extracellular vesicles type/source and the target tissue in the context of homing using phenothiazine derivatives or polyethylene glycols. At present, the homing is effective with as low as 500 ng (1.6 nmol) of methylene blue injected at the target site. In this example, the target site is the subcutaneous area in foot pad of a mouse, with good perfusion of the methylene blue, so the effective amount of methylene blue for extracellular vesicle homing could be much lower than 500 ng (1.6 nmol).

[4] = tested on: ^89Zr labeled A549 lung cancer derived exosomes; assay: PET imaging of methylene blue mediated homing of intravenously injected 89Zr labeled exosomes to the injected hind paw (FIG. 13); type: in vivo, mouse; details: 1% methylene blue in hind limb paw 1 h after i.v. exosomes; PET 1 h later; opposite paw (Ringer's only) showed no accumulation
Protocol: (§1) FIG. 13 illustrates methylene blue was able to home exosomes irrespective of their cellular origin. PET image 550 and 554 was taken one hour after the mouse was intravenously injected (via tail vein) with the ^89Zr labeled A549 lung cancer derived exosomes and SK-N-SH brain cancer (bone marrow metastasis) derived exosomes, respectively. […] Then after one hour, 1% methylene blue (in Lactated Ringer's Solution) was injected in a hind limb paw. The opposite hind limb paw received a methylene blue-free and sterile Lactated Ringer's Solution. One hour after administering the methylene blue solution, the PET image 552 and 556 was taken. […] Thus, the methylene blue homed the ^89Zr labeled A549 and SK-N-SH derived exosomes from circulation showing that it can home extracellular vesicles independent of their cellular origin.

[5] = tested on: SK-N-SH brain cancer (bone marrow metastasis) derived exosomes; assay: as above; type: in vivo, mouse; details: 1% methylene blue in hind limb paw 1 h after i.v. exosomes; PET 1 h later; opposite paw (Ringer's only) showed no accumulation
Protocol: as §1

## CN(C)c1ccc2nc3ccc(=[N+](C)C)cc-3sc2c1 [methylene blue]
[1]
  accumulation of ^89Zr labeled PC-3 derived exosomes in the hind paw that received methylene blue: significant accumulation
[2]
  accumulation of ^89Zr labeled stem cell derived exosomes in the hind paw that received methylene blue: significant accumulation
[3]; 1% methylene blue injected in a hind paw and a front paw 19 hours after i.v. exosomes, imaged 3 h post-methylene blue injection
  homing of exosomes to methylene blue injection sites (PET image 502): homing of exosome to hind paw
[3]; 20 additional hours after the methylene blue injection, hind paw and front paw
  signal from exosomes at methylene blue injection sites (PET image 504): persistence of signal
[3]; second methylene blue injection about two days after exosome injection, PET one hour later
  accumulation of exosomes at second methylene blue injection site, opposite hind paw (PET image 506): accumulated at the target site 520
Extracellular vesicles
  lowest amount at which homing is effective: 500 ng
[4]
  accumulation of ^89Zr labeled A549 derived exosomes in the hind paw that received methylene blue (PET image 552): significant accumulation
[5]
  accumulation of ^89Zr labeled SK-N-SH derived exosomes in the hind paw that received methylene blue (PET image 556): significant accumulation
